According to US7037929B1, “2-amino-thiazole derivatives, process for their preparation, and their use as antitumor agents” (Pharmacia & Upjohn S.p.A., priority 1998, dated 2006):
pKi: −log10 of the molar value.

Target: cdk2/cyclin A complex (Homo sapiens, UniProt P24941)
Experiment: inhibition assay of cdk2/Cyclin A activity (MultiScreen-PH phosphocellulose filter plate, 33P-ATP, histone H1)
Format: biochemical
Settings: ATP and histone H1 substrate concentrations varied; random bireactant system equation; read-out: inhibiting activity towards the cdk2/cyclin A complex (Ki)
Procedure: The inhibiting activity of putative cdk/cyclin inhibitors and the potency of selected compounds was determined through a method of assay based on the use of the MultiScreen-PH 96 well plate (Millipore), in which a phosphocellulose filter paper was placed at each well bottom allowing binding of positive charged substrate after a washing/filtration step.
When a radioactivity labelled phosphate moiety was transferred by the ser/threo kinase to the filter-bound histone, light emitted was measured in a scintillation counter. The inhibition assay of cdk2/Cyclin A activity was performed according to the following protocol:
Kinase reaction: 1.5 μM histone H1 substrate, 25 μM ATP (0. 5 μCi P^33γ-ATP), 30 ng Cyclin A/cdk2 complex, […] in a final volume of 100 μl buffer (TRIS HCl 10 mM pH 7.5, MgCl2 10 mM, 7.5 mM DTT) were added to each well of a 96 U bottom well plate. After 10 min at 37° C. incubation, reaction was stopped by 20 μl EDTA 120 mM.
Capture: 100 μl were transferred from each well to MultiScreen plate, to allow substrate binding to phosphocellulose filter. […]
Detection: filters were allowed to dry at 37° C., then 100 μl/well scintillant were added and ^33P labelled histone H1 was detected by radioactivity counting in the Top-Count instrument.
Results: data were analysed and expressed as % inhibition referred to total activity of enzyme (=100%). […]

CC(C)c1cnc(NC(=O)Cc2ccc(N(C)C)cc2)s1 [2-[4-(dimethylamino)phenyl]-N-(5-isopropyl-1,3-thiazol-2-yl)acetamide]
pKi: 7.00
